Assay results reported in US20110319464A1, “METHODS FOR TREATING BENIGN PROSTATIC HYPERPLASIA” (KISSEI PHARMACEUTICAL CO., LTD., priority 2007, published 2011).

How the values were obtained:
[1] = tested on: symptoms of BPH; assay: Study C: 4 mg or 8 mg Silodosin Once Daily (KMD-3213-US021-99), U.S. Phase 2 Study; assay type: in vivo, human; details: for Incidence of Adverse Events: Dizziness / Incidence of Adverse Events: Orthostatic Hypotension / Incidence of Adverse Events: Syncope / Mean Change From Baseline (CFB) in Maximum Flow Rate / IPSS/AUASS baseline value / Maximum Flow Rate baseline value / Mean Change From Baseline (CFB) in IPSS/AUASS: Study C; for IPSS/AUASS baseline value / Maximum Flow Rate baseline value: Week 0
Procedure: The 6-week stable dosing period was preceded by a 4-week placebo lead-in and a 2-week titration period. […] Male patients were selected who were at least 45 years of age with signs and symptoms of BPH (AUASS of 13 and maximum urine flow rate between 4 and 15 mL/sec). In addition, the results for IPSS/AUASS for studies A, B, D and E are illustrated in FIGS. 3 to 6, respectively, and the results for Qmax for studies A, B, D and E are illustrated in FIGS. 7 to 10, respectively.

[2] = tested on: symptoms of BPH; assay: Study D: 8 mg Silodosin Once Daily (SI04009), U.S. Phase 3 Study; assay type: in vivo, human; details: 8 mg once daily
Source text: In addition, the results for IPSS/AUASS for studies A, B, D and E are illustrated in FIGS. 3 to 6, respectively, and the results for Qmax for studies A, B, D and E are illustrated in FIGS. 7 to 10, respectively.

[3] = 4 mg once daily, Visit 3 (Day 29), Post-dose (2-6 hr), LOCF
[4] = 4 mg once daily, Visit 4 (Day 36), LOCF
[5] = 4 mg once daily, Visit 4 (Day 36), Post-dose (2-6 hr), LOCF
[6] = 4 mg once daily, Visit 5 (Day 43), LOCF
[7] = 4 mg once daily, Visit 5 (Day 43), Post-dose (2-6 hr), LOCF
[8] = 4 mg once daily, Visit 6 (Day 64), LOCF
[9] = 4 mg once daily, Visit 6 (Day 64), Post-dose (2-6 hr), LOCF
[10] = 4 mg once daily, Visit 7 (EOS, Day 84), LOCF
[11] = 4 mg once daily, Visit 7 (EOS, Day 84), Post-dose (2-6 hr), LOCF
[12] = 8 mg once daily, Visit 3 (Day 29), Post-dose (2-6 hr), LOCF
[13] = 8 mg once daily, Visit 4 (Day 36), LOCF
[14] = 8 mg once daily, Visit 4 (Day 36), Post-dose (2-6 hr), LOCF
[15] = 8 mg once daily, Visit 5 (Day 43), LOCF
[16] = 8 mg once daily, Visit 5 (Day 43), Post-dose (2-6 hr), LOCF
[17] = 8 mg once daily, Visit 6 (Day 64), LOCF
[18] = 8 mg once daily, Visit 6 (Day 64), Post-dose (2-6 hr), LOCF
[19] = 8 mg once daily, Visit 7 (EOS, Day 84), LOCF
[20] = 8 mg once daily, Visit 7 (EOS, Day 84), Post-dose (2-6 hr), LOCF

C[C@H](Cc1cc2c(c(C(N)=O)c1)N(CCCO)CC2)NCCOc1ccccc1OCC(F)(F)F [Silodosin]
Q-max, Mean (SD) [1, 3]: 12.2 (4.4) ml/sec
Q-max, Mean change (SD) [1, 3]: 2.5 (3.6) ml/sec
Q-max, Mean (SD) ([1]; 4 mg once daily, Visit 3 (baseline, Day 29), Pre-dose, LOCF): 9.7 (3.0) ml/sec
Total IPSS/AUASS Score, Mean (SD) ([1]; 4 mg once daily, Visit 3 (baseline, Day 29), modified intent to treat (LOCF)): 19.7 (5.1)
Total IPSS/AUASS Score, Mean (SD) [1, 4]: 17.3 (5.6)
Total IPSS/AUASS Score, Mean change (SD) [1, 4]: −2.4 (4.0)
Q-max, Mean (SD) [1, 5]: 12.4 (4.7) ml/sec
Q-max, Mean change (SD) [1, 5]: 2.7 (4.4) ml/sec
Total IPSS/AUASS Score, Mean (SD) [1, 6]: 15.5 (5.6)
Total IPSS/AUASS Score, Mean change (SD) [1, 6]: −4.2 (4.5)
Q-max, Mean (SD) [1, 7]: 12.2 (4.7) ml/sec
Q-max, Mean change (SD) [1, 7]: 2.6 (4.2) ml/sec
Total IPSS/AUASS Score, Mean (SD) [1, 8]: 14.6 (6.0)
Total IPSS/AUASS Score, Mean change (SD) [1, 8]: −5.1 (5.1)
Q-max, Mean (SD) [1, 9]: 12.0 (4.3) ml/sec
Q-max, Mean change (SD) [1, 9]: 2.3 (4.1) ml/sec
Total IPSS/AUASS Score, Mean (SD) [1, 10]: 13.9 (6.0)
Total IPSS/AUASS Score, Mean change (SD) [1, 10]: −5.7 (5.5)
Q-max, Mean (SD) [1, 11]: 12.6 (4.4) ml/sec
Q-max, Mean change (SD) [1, 11]: 2.9 (4.0) ml/sec
Q-max, Mean (SD) [1, 12]: 11.7 (3.5) ml/sec
Q-max, Mean change (SD) [1, 12]: 2.0 (3.1) ml/sec
Q-max, Mean (SD) ([1]; 8 mg once daily, Visit 3 (baseline, Day 29), Pre-dose, LOCF): 9.6 (2.7) ml/sec
Total IPSS/AUASS Score, Mean (SD) ([1]; 8 mg once daily, Visit 3 (baseline, Day 29), modified intent to treat (LOCF)): 20.8 (5.3)
Total IPSS/AUASS Score, Mean (SD) [1, 13]: 18.0 (6.0)
Total IPSS/AUASS Score, Mean change (SD) [1, 13]: −2.7 (3.7)
Q-max, Mean (SD) [1, 14]: 12.5 (4.8) ml/sec
Q-max, Mean change (SD) [1, 14]: 2.9 (4.4) ml/sec
Total IPSS/AUASS Score, Mean (SD) [1, 15]: 16.5 (6.0)
Total IPSS/AUASS Score, Mean change (SD) [1, 15]: −4.3 (3.9)
Q-max, Mean (SD) [1, 16]: 12.5 (5.7) ml/sec
Q-max, Mean change (SD) [1, 16]: 2.9 (5.4) ml/sec
Total IPSS/AUASS Score, Mean (SD) [1, 17]: 15.9 (6.4)
Total IPSS/AUASS Score, Mean change (SD) [1, 17]: −4.9 (4.6)
Q-max, Mean (SD) [1, 18]: 12.9 (5.6) ml/sec
Q-max, Mean change (SD) [1, 18]: 3.2 (5.5) ml/sec
Total IPSS/AUASS Score, Mean (SD) [1, 19]: 14.0 (6.5)
Total IPSS/AUASS Score, Mean change (SD) [1, 19]: −6.8 (5.8)
Q-max, Mean (SD) [1, 20]: 13.0 (5.8) ml/sec
Q-max, Mean change (SD) [1, 20]: 3.5 (5.7) ml/sec
Incidence of Adverse Events: Dizziness ([1]; 4 mg once daily): 9.1 % of patients
Incidence of Adverse Events: Orthostatic Hypotension ([1]; 4 mg once daily): 4.5 % of patients
Incidence of Adverse Events: Syncope ([1]; 4 mg once daily): 0 % of patients
Mean Change From Baseline (CFB) in Maximum Flow Rate ([1]; 4 mg once daily, 2-6 hrs after 1st dose): 2.5 mL/s
IPSS/AUASS baseline value ([1]; 4 mg once daily): 19.7
Maximum Flow Rate baseline value ([1]; 4 mg once daily): 9.7 mL/s
Mean Change From Baseline (CFB) in IPSS/AUASS ([1]; 4 mg once daily, Week 1): −2.4
Mean Change From Baseline (CFB) in Maximum Flow Rate ([1]; 4 mg once daily, Week 1): 2.7 mL/s
Mean Change From Baseline (CFB) in IPSS/AUASS ([1]; 4 mg once daily, Week 2): −4.2
Mean Change From Baseline (CFB) in Maximum Flow Rate ([1]; 4 mg once daily, Week 2): 2.6 mL/s
Mean Change From Baseline (CFB) in IPSS/AUASS ([1]; 4 mg once daily, Week 5): −5.1
Mean Change From Baseline (CFB) in Maximum Flow Rate ([1]; 4 mg once daily, Week 5): 2.3 mL/s
Mean Change From Baseline (CFB) in IPSS/AUASS ([1]; 4 mg once daily, Week 8): −5.7
Mean Change From Baseline (CFB) in Maximum Flow Rate ([1]; 4 mg once daily, Week 8): 2.9 mL/s
Incidence of Adverse Events: Dizziness ([1]; 8 mg once daily): 5.6 % of patients
Incidence of Adverse Events: Orthostatic Hypotension ([1]; 8 mg once daily): 3.3 % of patients
Incidence of Adverse Events: Syncope ([1]; 8 mg once daily): 0 % of patients
Mean Change From Baseline (CFB) in Maximum Flow Rate ([1]; 8 mg once daily, 2-6 hrs after 1st dose): 2.0 mL/s
IPSS/AUASS baseline value ([1]; 8 mg once daily): 20.8
Maximum Flow Rate baseline value ([1]; 8 mg once daily): 9.6 mL/s
Mean Change From Baseline (CFB) in IPSS/AUASS ([1]; 8 mg once daily, Week 1): −2.7
Mean Change From Baseline (CFB) in Maximum Flow Rate ([1]; 8 mg once daily, Week 1): 2.9 mL/s
Mean Change From Baseline (CFB) in IPSS/AUASS ([1]; 8 mg once daily, Week 2): −4.3
Mean Change From Baseline (CFB) in Maximum Flow Rate ([1]; 8 mg once daily, Week 2): 2.9 mL/s
Mean Change From Baseline (CFB) in IPSS/AUASS ([1]; 8 mg once daily, Week 5): −4.9
Mean Change From Baseline (CFB) in Maximum Flow Rate ([1]; 8 mg once daily, Week 5): 3.2 mL/s
Mean Change From Baseline (CFB) in IPSS/AUASS ([1]; 8 mg once daily, Week 8): −6.8
Mean Change From Baseline (CFB) in Maximum Flow Rate ([1]; 8 mg once daily, Week 8): 3.4 mL/s
Incidence of Adverse Events: Dizziness [2]: 2.6 % of patients
Incidence of Adverse Events: Orthostatic Hypotension [2]: 2.6 % of patients
Incidence of Adverse Events: Syncope [2]: 0 % of patients
Mean Change From Baseline (CFB) in Maximum Flow Rate ([2]; 2-6 hrs after 1st dose): 2.7 mL/s
IPSS/AUASS baseline value ([2]; Week 0): 21.5
Maximum Flow Rate baseline value ([2]; Week 0): 9.0 mL/s
Mean Change From Baseline (CFB) in IPSS/AUASS ([2]; Week 0.5): −3.9
Mean Change From Baseline (CFB) in IPSS/AUASS ([2]; Week 1): −4.5
Mean Change From Baseline (CFB) in Maximum Flow Rate ([2]; Week 1): 2.2 mL/s
Mean Change From Baseline (CFB) in IPSS/AUASS ([2]; Week 2): −5.3
Mean Change From Baseline (CFB) in Maximum Flow Rate ([2]; Week 2): 2.6 mL/s
Mean Change From Baseline (CFB) in IPSS/AUASS ([2]; Week 4): −5.9
Mean Change From Baseline (CFB) in Maximum Flow Rate ([2]; Week 4): 2.4 mL/s
Mean Change From Baseline (CFB) in IPSS/AUASS ([2]; Week 12): −6.7
Mean Change From Baseline (CFB) in Maximum Flow Rate ([2]; Week 12): 2.1 mL/s
